According to PubChem BioAssay AID2060623 (Molecular Pharmacology Branch, DTP, NCI, 2025):

Tested on: 227483-062-R1-J1-PDC complex spheroids with HUVEC/MSC, viability
Experiment: Anticancer human tumor 227483-062-R1-J1-PDC patient-derived pancreatic carcinoma cell line growth inhibition [CLK]
Settings: for IC50: curve of first compound; for viability, T/C: stronger effect = lower value; active = viability on the fitted dose curve at most 10% of control; inactive = the rest
From the text: A high-throughput screen of multi-cell type tumor spheroids was designed to identify active combinations of […] and targeted small molecules. Complex spheroids include a stromal component modeled by human endothelial cells (HUVEC) and fibroblasts modeled by human mesenchymal stem cells (MSCs). The concentration ranges selected for each drug and investigational agent were based upon clinically achievable concentrations if the clinical Cmax of the agent was known.
Compounds. The drugs and investigational agents: cirtuvivint (SM08502; NSC835563), CC-671 (NSC850746), vemurafenib (NSC761431), tapotoclax (NSC804041), sotorasib (NSC818433), adagrasib (NSC831453), MRTX-1133 (NSC836407), BAY2416964 (NSC825713), copanlisib (NSC816437), inavolisib (NSC800729), abemaciclib (NSC768073), osimertinib (NSC779217), entinostat (NSC756642), eltanexor (KPT-8602, NSC794443), venetoclax (NSC766270), ceralasertib (NSC777638), bortezomib (NSC756655), olaparib (NSC753686), talazoparib (NSC767125), alisertib (NSC759677), peposertib (NSC802822), gemcitabine (NSC613327), 5-fluorouracil (NSC19893), SN-38 (NSC673596), oxaliplatin (NSC266046), paclitaxel (NSC125973), and doxorubicin (NSC123127), were obtained from the National Cancer Institute (NCI) Developmental Therapeutics Program Chemical Repository. The FDA-approved anticancer drug set is available from the Developmental Therapeutics Program at https://dtp.cancer.gov/organization/dscb/obtaining/available plates.htm. […] The stock solutions were prepared in dimethyl sulfoxide (DMSO, Sigma-Aldrich, St. Louis, MO, cat. D2650), except for the platinum complexes which were prepared in saline (Quality Biological, Gaithersburg, MD, cat. 114-055-101), at 800-fold the tested concentration and stored at -70 degrees C prior to their use. All drugs and investigational agents were tested over a range starting from a high concentration at or near the clinical Cmax and decreasing in half-log increments. If the clinical Cmax for an agent had not been determined, the highest concentration tested was 10 microM.
Cell Culture. All cells were maintained in an incubator at 37 degrees C and 5% CO2 with 95% humidity. The PDC lines were cultured according to standard operating procedures established by the NCI PDMR. Briefly, all PDCs were thawed and cultured in Matrigel-coated flasks prepared with a working solution of 1X Ham's F-12 nutrient mix, without supplementation (Invitrogen, Waltham, MA, cat. 11765054), 100 U/mL penicillin-streptomycin (Invitrogen, cat. 15140122), and 2.5% Matrigel (Corning Inc., Corning, NY, cat. 354248) for the first three passages. The 947758-054-R-J2-PDC line was cultured in 6B/Colon 1A media, which includes advanced DMEM/F-12 (Thermo Fisher Scientific, cat. 12634028), 10 mM HEPES (Thermo Fisher Scientific, cat. 15630080), 1X GlutaMAX supplement (Thermo Fisher Scientific, cat. 35050061), 0.1 mg/mL primocin (InvivoGen, cat. ant-pm-2), 10% defined fetal bovine serum, heat inactivated (HyClone Laboratories Inc., cat. SH30070.03HI), 1.25 mM N-Acetyl-L-cysteine (Sigma-Aldrich, cat. A9165), 10 mM nicotinamide (Sigma-Aldrich, cat. N0636), 1X B-27 supplement (Thermo Fisher Scientific, cat. 17504044), 1X N-2 supplement (Thermo Fisher Scientific, cat. 17502048), and 10 microM Y-27632 dihydrochloride (Tocris Bioscience, cat. 1254). The 876862-298-R-J1-PDC was cultured in 6E media, which includes all 6B/Colon 1A media components plus 50% L-WRN conditioned media (ATCC, cat. CRL-3276), 50 ng/mL recombinant human EGF recombinant protein (hEGF; Thermo Fisher Scientific, cat. PHG0311), 10 ng/mL recombinant human fibroblast growth factor 10 (hGFG-10; PeproTech, cat. 100-26), 1 ng/mL recombinant human fibroblast growth factor 2 (hFGF-2; PeproTech, cat. 100-18B), and 1 µM prostaglandin E2 (PGE2; Tocris, cat. 2296). The 227483-062-R1-J1-PDC line was cultured in Panc media, containing all 6E components except hFGF-2, with the addition of 500 nM SB-431542 (Selleckchem, cat. S1067) and 10 nM gastrin (Tocris, cat. 3006). […]

[1] = second compound 0.0316 µM, first compound 0.0316 µM
[2] = second compound 0.0316 µM, first compound 0.1 µM
[3] = second compound 0.0316 µM, first compound 0.316 µM
[4] = second compound 0.0316 µM, first compound 1 µM
[5] = second compound 0.1 µM, first compound 0.0316 µM
[6] = second compound 0.1 µM, first compound 0.1 µM
[7] = second compound 0.1 µM, first compound 0.316 µM
[8] = second compound 0.1 µM, first compound 1 µM
[9] = second compound 0.316 µM, first compound 0.0316 µM
[10] = second compound 0.316 µM, first compound 0.1 µM
[11] = second compound 0.316 µM, first compound 0.316 µM
[12] = second compound 0.316 µM, first compound 1 µM
[13] = second compound 1 µM, first compound 0.0316 µM
[14] = second compound 1 µM, first compound 0.1 µM
[15] = second compound 1 µM, first compound 0.316 µM
[16] = second compound 1 µM, first compound 1 µM
[17] = second compound 3.16 µM, first compound 0.0316 µM
[18] = second compound 3.16 µM, first compound 0.1 µM
[19] = second compound 3.16 µM, first compound 0.316 µM
[20] = second compound 3.16 µM, first compound 1 µM
[21] = second compound 10 µM, first compound 0.0316 µM
[22] = second compound 10 µM, first compound 0.1 µM
[23] = second compound 10 µM, first compound 0.316 µM
[24] = second compound 10 µM, first compound 1 µM
[25] = second compound 0.0316 µM, first compound 0.00316 µM
[26] = second compound 0.0316 µM, first compound 0.01 µM
[27] = second compound 0.1 µM, first compound 0.00316 µM
[28] = second compound 0.1 µM, first compound 0.01 µM
[29] = second compound 0.316 µM, first compound 0.00316 µM
[30] = second compound 0.316 µM, first compound 0.01 µM
[31] = second compound 1 µM, first compound 0.00316 µM
[32] = second compound 1 µM, first compound 0.01 µM
[33] = second compound 3.16 µM, first compound 0.00316 µM
[34] = second compound 3.16 µM, first compound 0.01 µM
[35] = second compound 10 µM, first compound 0.00316 µM
[36] = second compound 10 µM, first compound 0.01 µM
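Note: spheroids exposed to compounds for seven days before readout.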
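Throughout, for viability, T/C: percent of DMSO vehicle control luminescence as 100% viability.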

CC(Nc1ccc2c(c1)OCCn1cc(N3C(=O)OCC3C(F)F)nc1-2)C(N)=O (stereo unspecified) + CN1CCN(c2cc(C(=O)Nc3cc4cc(-c5cnn(C)c5)ccc4cn3)ccn2)CC1
> 10000 nM: IC50 (second compound 0.0316 µM)
inactive: viability, T/C [1] 108% | viability, T/C [2] 81.5% | viability, T/C [3] 70% | viability, T/C [4] 77.8% | viability, T/C (second compound 0.0316 µM, first compound 3.16 µM) 63% | viability, T/C (second compound 0.0316 µM, first compound 10 µM) 66.1% | viability, T/C [5] 72.6% | viability, T/C [6] 60.6% | viability, T/C [7] 47.2% | viability, T/C [8] 45.7% | viability, T/C (second compound 0.1 µM, first compound 3.16 µM) 48.7% | viability, T/C (second compound 0.1 µM, first compound 10 µM) 44.8%
< 31.6 nM: IC50 (second compound 0.316 µM) | IC50 (second compound 1 µM) | IC50 (second compound 3.16 µM) | IC50 (second compound 10 µM)
248 nM: IC50 (second compound 0.1 µM)
active: viability, T/C [9] 7.83% | viability, T/C [10] 6.06% | viability, T/C [11] 6.08% | viability, T/C [12] 6.51% | viability, T/C (second compound 0.316 µM, first compound 3.16 µM) 6.66% | viability, T/C (second compound 0.316 µM, first compound 10 µM) 5.69% | viability, T/C [13] 3.5% | viability, T/C [14] 1.22% | viability, T/C [15] 1.34% | viability, T/C [16] 1.35% | viability, T/C (second compound 1 µM, first compound 3.16 µM) 2.69% | viability, T/C (second compound 1 µM, first compound 10 µM) 2.57% | viability, T/C [17] 5.8% | viability, T/C [18] 3.43% | viability, T/C [19] 2.3% | viability, T/C [20] 2.9% | viability, T/C (second compound 3.16 µM, first compound 3.16 µM) 2.51% | viability, T/C (second compound 3.16 µM, first compound 10 µM) 2.34% | viability, T/C [21] 2.26% | viability, T/C [22] 2.36% | viability, T/C [23] 2.91% | viability, T/C [24] 1.47% | viability, T/C (second compound 10 µM, first compound 3.16 µM) 1.7% | viability, T/C (second compound 10 µM, first compound 10 µM) 3.3%

CCN1CCN(Cc2ccc(Nc3ncc(F)c(-c4cc(F)c5nc(C)n(C(C)C)c5c4)n3)nc2)CC1 + CN1CCN(c2cc(C(=O)Nc3cc4cc(-c5cnn(C)c5)ccc4cn3)ccn2)CC1
inactive: viability, T/C [25] 97.5% | viability, T/C [26] 93.4% | viability, T/C [1] 101% | viability, T/C [2] 93.4% | viability, T/C [3] 87.6% | viability, T/C [4] 72.4% | viability, T/C [27] 65.8% | viability, T/C [28] 64.7% | viability, T/C [5] 64.5% | viability, T/C [6] 72.9% | viability, T/C [7] 72.6% | viability, T/C [8] 52%
active: viability, T/C [29] 6.05% | viability, T/C [30] 8.49% | viability, T/C [9] 8.54% | viability, T/C [10] 9.66% | viability, T/C [11] 13% | viability, T/C [12] 6.42% | viability, T/C [31] 1.57% | viability, T/C [32] 2.07% | viability, T/C [13] 2.83% | viability, T/C [14] 2.75% | viability, T/C [15] 4.4% | viability, T/C [16] 5.61% | viability, T/C [33] 3.72% | viability, T/C [34] 6.23% | viability, T/C [17] 5.4% | viability, T/C [18] 5.18% | viability, T/C [19] 4.88% | viability, T/C [20] 8.09% | viability, T/C [35] 3.9% | viability, T/C [36] 2.79% | viability, T/C [21] 4.22% | viability, T/C [22] 4.63% | viability, T/C [23] 2.76% | viability, T/C [24] 2.39%
> 1000 nM: IC50 (second compound 0.0316 µM) | IC50 (second compound 0.1 µM)
< 3.16 nM: IC50 (second compound 0.316 µM) | IC50 (second compound 1 µM) | IC50 (second compound 3.16 µM) | IC50 (second compound 10 µM)

COc1c(OCCCN2CCOCC2)ccc2c3n(c(=NC(=O)c4cnc(N)nc4)nc12)CCN3 + CN1CCN(c2cc(C(=O)Nc3cc4cc(-c5cnn(C)c5)ccc4cn3)ccn2)CC1
inactive: viability, T/C [25] 114% | viability, T/C [26] 96.6% | viability, T/C [1] 74.2% | viability, T/C [2] 60.9% | viability, T/C [3] 43.3% | viability, T/C [4] 27.8% | viability, T/C [27] 60.1% | viability, T/C [28] 65% | viability, T/C [5] 41% | viability, T/C [6] 38.8% | viability, T/C [7] 23.2% | viability, T/C [8] 16.7%
25 nM: IC50 (second compound 0.1 µM)
active: viability, T/C [29] 6.51% | viability, T/C [30] 6.64% | viability, T/C [9] 5.96% | viability, T/C [10] 6.61% | viability, T/C [11] 5.11% | viability, T/C [12] 4.05% | viability, T/C [31] 3.87% | viability, T/C [32] 1.44% | viability, T/C [13] 1.35% | viability, T/C [14] 1.23% | viability, T/C [15] 1.21% | viability, T/C [16] 1.6% | viability, T/C [33] 2.64% | viability, T/C [34] 2.53% | viability, T/C [17] 2.97% | viability, T/C [18] 1.79% | viability, T/C [19] 1.84% | viability, T/C [20] 1.94% | viability, T/C [35] 3.49% | viability, T/C [36] 3.33% | viability, T/C [21] 1.42% | viability, T/C [22] 1.13% | viability, T/C [23] 3.58% | viability, T/C [24] 1.55%
< 3.16 nM: IC50 (second compound 0.316 µM) | IC50 (second compound 1 µM) | IC50 (second compound 3.16 µM) | IC50 (second compound 10 µM)
194 nM: IC50 (second compound 0.0316 µM)
